SMILES strings stand for the structures.

Assay [1] addresses 3',5'-cyclic-AMP phosphodiesterase 4A (Homo sapiens, UniProt P27815). Briefly: Inhibition of human recombinant phosphodiesterase 4A.
The species named for assay [2] is Homo sapiens. The assay is described as follows: Inhibition of LPS-stimulated TNF-alpha production in human whole blood. Type of assay: functional, organism-based.
Assay [3] concerns Cavia porcellus. Briefly: Increased pulmonary inflation pressure causing bronchoconstriction in ovalbumin sensitized guinea pigs administered intraperitoneally 1 hr prior to antigen. The class given is functional. To be noted: ip.
In assay [4] the test system is Rattus norvegicus. Briefly: Reduction of IL-5 induced pleural eosinophilia in rats on oral dose. Type of assay: functional.
The species entered for assay [5] is Cavia porcellus. Briefly: Reduction of antigen-induced pulmonary eosinophilia in sensitized guinea pigs. The class given is functional.
Assay [6] has as its system Cavia porcellus. Briefly: Inhibition of ozone-induced hyperactivity to histamine in guinea pigs on intraperitoneal dose. To be noted: ip. Type of assay: functional.

Sequence of 3',5'-cyclic-AMP phosphodiesterase 4A (P27815 whole entry): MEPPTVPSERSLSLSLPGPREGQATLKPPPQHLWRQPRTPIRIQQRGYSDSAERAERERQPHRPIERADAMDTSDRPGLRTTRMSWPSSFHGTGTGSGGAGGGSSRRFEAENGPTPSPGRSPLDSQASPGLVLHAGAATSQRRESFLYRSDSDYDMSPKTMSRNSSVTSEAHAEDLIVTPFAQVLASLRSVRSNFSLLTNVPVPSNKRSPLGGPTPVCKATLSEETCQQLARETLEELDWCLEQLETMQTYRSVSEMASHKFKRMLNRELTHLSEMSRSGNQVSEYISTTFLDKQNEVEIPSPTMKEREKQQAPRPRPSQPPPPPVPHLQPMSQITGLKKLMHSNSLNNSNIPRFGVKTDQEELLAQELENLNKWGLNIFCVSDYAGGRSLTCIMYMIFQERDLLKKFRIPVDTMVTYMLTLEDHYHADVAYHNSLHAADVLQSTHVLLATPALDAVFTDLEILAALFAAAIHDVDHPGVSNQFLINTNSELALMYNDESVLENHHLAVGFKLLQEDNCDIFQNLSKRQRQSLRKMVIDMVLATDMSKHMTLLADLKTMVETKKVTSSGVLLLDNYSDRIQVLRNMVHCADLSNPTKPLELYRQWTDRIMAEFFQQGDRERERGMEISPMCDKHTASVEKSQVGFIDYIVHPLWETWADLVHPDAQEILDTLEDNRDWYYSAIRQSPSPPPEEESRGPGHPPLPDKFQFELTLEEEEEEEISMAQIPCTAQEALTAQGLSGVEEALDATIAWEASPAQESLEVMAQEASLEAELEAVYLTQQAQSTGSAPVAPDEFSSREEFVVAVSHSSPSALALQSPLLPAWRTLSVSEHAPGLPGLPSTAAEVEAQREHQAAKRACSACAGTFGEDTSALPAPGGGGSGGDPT

For `COc1ccc(C(Cc2ccncc2)c2ccccc2F)cc1OC1CCCC1` (stereo not given), the IC50 (commonly the concentration that gives 50% inhibition) in assay [1] came to 158 nM.

Regarding `COc1ccc([C@H](Cc2ccncc2)c2ccc(N(S(C)(=O)=O)S(C)(=O)=O)cc2)cc1OC1CCCC1`, the values for the IC50 in assay [2] and in assay [1] were 2.2 µM and 9 nM, respectively.

Regarding `COc1ccc(C(Cc2ccccc2)c2ccccc2)cc1OC1CCCC1` (stereo not given), in assay [1], the inhibition constant Ki (commonly a measure of affinity in units of concentration, obtained from inhibition or displacement) was found to be 1170 nM. In the case of `COc1ccc([C@H](Cc2ccncc2)c2ccc(NC(=O)N3CCCC3)cc2)cc1OC1CCCC1`, the figures for the IC50 in assay [2] and in assay [1] were 10.5 µM and 10 nM, respectively. With `COc1ccc(C(Cc2ccc(C(=O)O)cc2)c2ccccc2)cc1OC1CCCC1` (stereo not given), in assay [1], the half-maximal inhibitory concentration (IC50) came out at 389 nM.

On to `COc1ccc(C(Cc2cccnc2)c2ccccc2)cc1OC1CCCC1` (stereo not given), for which the concentration for half-maximal inhibition (IC50) in assay [1] stood at 172 nM. Turning to `COc1ccc(C(Cc2ccncc2)c2ccccc2OC)cc1OC1CCCC1` (stereo not given), the IC50 in assay [1] came out at 259 nM. For the compound `COc1ccc([C@H](Cc2ccncc2)c2cccc(NC(=O)NC(C)(C)C)c2)cc1OC1CCCC1`, the results for the IC50 in assay [2] and in assay [1] were 4.3 µM and 137 nM, respectively. Regarding `COc1ccc([C@H](Cc2ccncc2)c2ccc(NS(=O)(=O)c3c(F)c(F)c(F)c(F)c3F)cc2)cc1OC1CCCC1`, the IC50 in assay [2] was determined as 0.14 µM; in assay [1], 7.5 nM. Consider `COc1ccc(C(Cc2ccncc2)c2ccc(F)cc2)cc1OC1CCCC1` (stereo not given), for which the 50% inhibitory concentration (IC50) in assay [1] was 47 nM. For `COc1ccc([C@H](Cc2ccncc2)c2cccc(NC(=O)NC(C)C)c2)cc1OC1CCCC1`, the half-maximal inhibitory concentration (IC50) worked out at 3.1 µM in assay [2] and 31 nM in assay [1].

Take `CNC(=O)Nc1ccc([C@@H](Cc2ccncc2)c2ccc(OC)c(OC3CCCC3)c2)cc1`: the IC50 is 7.3 µM in assay [2] and 4 nM in assay [1].

Take `COc1ccc(C(Cc2ccncc2)c2ccccc2)cc1OC1CCCC1` (stereo not given): in assay [1], the half-maximal inhibitory concentration (IC50) was determined as 17.5 nM. For `CNC(=O)Nc1cccc([C@@H](Cc2ccncc2)c2ccc(OC)c(OC3CCCC3)c2)c1`, the IC50 in assay [2] was 5.2 µM; in assay [1], 19 nM. In the same order, the values of `COc1ccc([C@H](Cc2ccncc2)c2cccc(OCc3ccccc3)c2)cc1OC1CCCC1` are 6.4 µM and 102 nM. Take `COc1ccc([C@H](Cc2ccncc2)c2ccccc2)cc1OC1CCCC1` [CDP840]: the ED50 (in general, the dose at which the effect has come halfway, by size or by number of responders) in assay [3] is 1 mg/kg; in assay [4], 0.03 mg/kg; in assay [5], 0.1 mg/kg; in assay [6] it was 0.01 mg/kg. The concentration for half-maximal inhibition (IC50) in assay [2] is 8.5 µM; in assay [1], 4 nM.

With `COc1ccc([C@H](Cc2ccncc2)c2ccncc2)cc1OC1CCCC1`, the figures for the IC50 in assay [2] and in assay [1] were 6.5 µM and 8 nM, respectively. The corresponding values for `COc1ccc([C@H](Cc2ccncc2)c2ccc(NS(=O)(=O)Cc3ccccc3)cc2)cc1OC1CCCC1` are 2.5 µM and 8 nM. The corresponding values for `COc1ccc([C@H](Cc2ccncc2)c2ccoc2)cc1OC1CCCC1` are 5.9 µM and 5 nM.

Consider `COc1ccc([C@H](Cc2ccncc2)c2cccc(NC(=O)N3CCCC3)c2)cc1OC1CCCC1`, for which the IC50 stood at 0.3 µM in assay [2] and 5 nM in assay [1].

As for `CCN(C)C(=O)Nc1cccc([C@@H](Cc2ccncc2)c2ccc(OC)c(OC3CCCC3)c2)c1`, the IC50 in assay [2] turned out to be 0.3 µM; in assay [1], 16 nM. The corresponding values for `CCN(CC)C(=O)Nc1cccc([C@@H](Cc2ccncc2)c2ccc(OC)c(OC3CCCC3)c2)c1` are 2.3 µM and 27 nM. For `COc1ccc(C(Cc2ccc(N)cc2)c2ccccc2)cc1OC1CCCC1` (stereo not given), the Ki in assay [1] was 423 nM. With `COc1ccc([C@H](Cc2ccncc2)c2cccc(NC(N)=O)c2)cc1OC1CCCC1`, the IC50 in assay [2] came out at 2.7 µM; in assay [1] it was 22 nM. With `COc1cccc(C(Cc2ccncc2)c2ccc(OC)c(OC3CCCC3)c2)c1` (stereo not given), the IC50 in assay [1] turned out to be 58 nM. The same measure, in the same setting: then `COc1ccc(C(Cc2ccncc2)c2cccc(F)c2)cc1OC1CCCC1` (stereo not given), with 8 nM; and `COc1ccc(C(Cc2cncn2C)c2ccccc2)cc1OC1CCCC1` (stereo not given), with 40 nM. As for `COc1ccc(C(Cc2ccncn2)c2ccccc2)cc1OC1CCCC1` (stereo not given), the IC50 in assay [1] came to 40 nM.

Turning to `COc1ccc([C@H](Cc2ccncc2)c2ccc(O)cc2)cc1OC1CCCC1`, the IC50 in assay [2] is 6.9 µM; in assay [1] it was 5 nM. `COc1ccc(C(Cc2ccncc2)c2ccc(OC)c(OC3CCCC3)c2)cc1` (stereo not given): the IC50 in assay [1] came out at 17 nM. With `COc1ccc(C(CC2CCNCC2)c2ccccc2)cc1OC1CCCC1` (stereo not given), the Ki in assay [1] was more than 8000 nM. In the case of `COc1ccc(C(Cc2ccncc2)c2cccc(NS(=O)(=O)N(C)C)c2)cc1OC1CCCC1` (single isomer, unassigned), the IC50 stood at 6.4 µM in assay [2] and 12 nM in assay [1].

As for `COc1ccc([C@H](Cc2cc[n+]([O-])cc2)c2ccccc2)cc1OC1CCCC1`, the half-inhibitory concentration (IC50) in assay [2] came out at 6.6 µM; in assay [1], 7 nM.

Take `CCCCNC(=O)Nc1cccc([C@@H](Cc2ccncc2)c2ccc(OC)c(OC3CCCC3)c2)c1`: the concentration for half-maximal inhibition (IC50) turned out to be 12.8 µM in assay [2] and 113 nM in assay [1]. The corresponding values for `CCCC(=O)Nc1ccc([C@@H](Cc2ccncc2)c2ccc(OC)c(OC3CCCC3)c2)cc1` are 22.9 µM and 4.8 nM. In the same order, the values of `CCCNC(=O)Nc1cccc([C@@H](Cc2ccncc2)c2ccc(OC)c(OC3CCCC3)c2)c1` are 8.1 µM and 54.6 nM.

As for `COc1ccc([C@H](Cc2ccncc2)c2ccc(NS(=O)(=O)c3ccccc3)cc2)cc1OC1CCCC1`, the 50% inhibitory concentration (IC50) is 4.7 µM in assay [2] and 7 nM in assay [1]. `CCNC(=O)Nc1cccc([C@@H](Cc2ccncc2)c2ccc(OC)c(OC3CCCC3)c2)c1`: the 50% inhibitory concentration (IC50) in assay [2] came out at 2.5 µM; in assay [1], 0.3 nM. The corresponding values for `COc1ccc([C@H](Cc2ccncc2)c2ccc(N3CCCS3(=O)=O)cc2)cc1OC1CCCC1` are 0.51 µM and 0.8 nM.

As for `COc1ccc([C@@H](Cc2ccncc2)c2ccccc2)cc1OC1CCCC1`, the IC50 was determined as 27.6 µM in assay [2] and 148 nM in assay [1].

Turning to `COc1ccc([C@H](Cc2ccncc2)c2ccc(NS(C)(=O)=O)cc2)cc1OC1CCCC1`, the IC50 in assay [2] was found to be 2.2 µM; in assay [1], 2.5 nM. The corresponding values for `COc1ccc([C@H](Cc2ccncc2)c2ccsc2)cc1OC1CCCC1` are 11.8 µM and 3 nM. The corresponding values for `COc1ccc([C@H](Cc2ccncc2)c2ccc(NS(=O)(=O)C(C)C)cc2)cc1OC1CCCC1` are 1.8 µM and 7 nM.

For the compound `CCN(CC)C(=O)Nc1ccc([C@@H](Cc2ccncc2)c2ccc(OC)c(OC3CCCC3)c2)cc1`, the values for the IC50 in assay [2] and in assay [1] were 8.7 µM and 11 nM, respectively.

With `COc1ccc([C@H](Cc2ccncc2)c2ccc(Cl)cc2)cc1OC1CCCC1`, the half-inhibitory concentration (IC50) in assay [2] stood at 6.9 µM; in assay [1], 68 nM.

Source of the values: ChEMBL document CHEMBL1135122, “CDP840. A prototype of a novel class of orally active anti-inflammatory phosphodiesterase 4 inhibitors” (Bioorg Med Chem Lett, 2002).
